Assay results from publication PMC10788915, “Fragment Merging, Growing, and Linking Identify New Trypanothione Reductase Inhibitors for Leishmaniasis” (Journal of Medicinal Chemistry, 2024).
Read-outs that look alike come from different tables or passages of the source.

Tested on: L. infantum intramacrophage amastigotes
Assay: Ex vivo inhibition of intramacrophage amastigote growth
Assay type: cell-based, Leishmania infantum
Details: for EC50: 72 h, murine macrophages infected with L. infantum amastigotes, read-out: intramacrophage amastigote EC50 ± SE (95% CI)
Protocol: Balb/c murine macrophages were used to perform ex vivo assay since the parasites infect them more effectively. Macrophages (5 × 10^5/well) were placed on glass coverslips within a 24-well culture plate and incubated with complete RPMI in a 5% CO2 incubator at 37 °C for 4 h to achieve cell adhesion. After this time, L. infantum amastigotes from spleens of previously infected hamsters were added onto the macrophages adhering to the coverslips at the ratio of 10:1 (parasites/macrophages). After 24 h of infection, the noninternalized amastigotes were removed by washes with RPMI. The infected macrophages were incubated with complete RPMI medium (control) or medium containing different concentrations of compounds in a 5% CO2 incubator at 37 °C for 72 h. Then, the coverslips were fixed with methanol, stained with Giemsa 10%, and analyzed by optical microscopy. The percentage of the infected macrophages and the number of amastigotes per infected macrophage were determined by random counting of 100 cells in each coverslip. Infection was judged to be adequate if more than 70% of the macrophages in the untreated control were infected. Activity for each compound was expressed as percentage of parasite burden reduction = infectivity index of treated cells/infectivity index of untreated cells. The infectivity index was calculated as follows: number of infected macrophages × mean number of amastigotes per macrophage / total number of macrophages. Nonlinear regression analysis (Graph-Pad Software Inc., San Diego, USA) was used for curve fitting and calculation of 50% inhibitory concentrations (IC50). The experiments were performed in triplicate, and two independent experiments were conducted.

Row | Structure (SMILES) | EC50 (Leishmania infantum, Macrophage, in Mus musculus) | EC50 | intramacrophage amastigote reduction (at 12.5 μM)
1 | C[N+]1(CCCc2ccccc2)CCN(C(=O)N(Cc2ccc(C(=O)NCCc3ccc(F)cc3)o2)c2ccc(F)cc2)CC1.[I-] [Compound 9, 4-(((5-((4-Fluorophenethyl)carbamoyl)furan-2-yl)methyl)(4-fluorophenyl)carbamoyl)-1-methyl-1-(3-phenylpropyl)piperazin-1-ium Iodide] | 15.3 µM | 15.3 ± 2.3 µM | –
2 | O=C(NCCc1ccc(F)cc1)c1ccc(CNC(=O)N2CC[N+](CCCc3ccccc3)(Cc3ccc(Cl)c(Cl)c3)CC2)o1.[I-] [Compound 14, 1-(3,4-Dichlorobenzyl)-4-(((5-((4-fluorophenethyl)carbamoyl)furan-2-yl)methyl)carbamoyl)-1-(3-phenylpropyl)piperazin-1-ium Iodide] | – | – | 40% of reduction at 12.5 μM
